Source: patent publication US7253176B1, “Immunosuppressive effects of 8-substituted xanthine derivatives” (K.U. Leuven Research & Development, priority 2000, dated 2007)
pIC50: −log10 of the molar value. Blank lines part the entries; values can stand above or below the compound they belong to.

Key:
[1] = test system: Peripheral blood mononuclear cells (PBMC); assay: Mixed lymphocyte reaction (MLR), [3H]-thymidine incorporation; assay type: cell-based, human
Source text: (§1) Various models may be used for testing an immunosuppressive effect. In vivo, for example, different transplantation models are available. They are strongly influenced by different immunogenicities, depending on the donor and recipient species used and depending on the nature of the transplanted organ. The survival time of transplanted organs can thus be used to measure the suppression of the immune response. In vitro, there exist also various models. The most used are lymphocyte activation tests. Usually activation is measured via lymphocyte proliferation. Inhibition of proliferation thus always means immunosuppression under the experimental conditions applied. There exist different stimuli for lymphocyte activation: • coculture of lymphocytes of […] (MLR=mixed lymphocyte reaction): lymphocytes expressing different minor and major antigens of the HLA-DR type (=allogens) activate each other non-specifically. • CD3 assay: here there is an activation of the T-lymphocytes via an exogenously added antibody (OKT3). This antibody reacts against the CD3 molecule located on the lymphocyte membrane. This molecule has a […]. […] This molecule is also located on the lymphocyte membrane, and delivers strong costimulatory signals. […] Reagents
Mixed Lymphocyte Reaction
Peripheral blood mononuclear cells (PBMC) were isolated from heparinized peripheral blood by density gradient centrifugation over Lymphoprep (Nycomed, Maorstua, Norway). Allogeneic PBMC or EBV-transformed human B cells [RPMI1788 (ATCC name CCL156)] which strongly express B7-1 and B7-2 were used as stimulator calls after irradiation with 30 Gy. MLR was performed in triplicate wells. After 5 days incubation at 37° C., 1 μCi [^3H]-thymidine was added to each cup. After a further 16 hours incubation, cells were harvested and counted in a β-counter.
The percent suppression of proliferation by drugs was counted using the formula: […]

[2] = test system: Highly purified T cells; assay: T cell proliferation induced by anti-CD3 mAb+PMA (BrdU); assay type: cell-based, human; conditions: read-out: IC50 aCD3
Source text: T cells were purified by removing non-T cells. Briefly, monocytes were removed by cold agglutination. The resulting lymphoid cells were further purified by a cell enrichment immunocolumn [Cellect Human T (Biotex, Edmonton, Alberta, Canada)] by a process of negative selection.
(§2) Measurements of T Cell Proliferations Induced by Anti-CD3 mAB+PMA or Anti-CD28 mAb+PMA
(§3) Highly purified T cells (10^6/ml) were stimulated by immobilized anti-CD3 or anti-CD28 mAb in the presence of PMA. Anti-CD3 mAb (CLB-CD3; CLB, Amsterdam, The Netherlands) were fixed on the 96-microwell plates by incubating the wells with 50 μl of mAb solution […] 50 μl (1/650 dilution in culture medium) was added directly to the wells. Further, 20 μl PMA (Sigma, St. Louis, Mo., USA) solution (final concentration: 0.5 ng/ml) was added. Subsequently, 20 μl of immunosuppressants were added by serial dilution in triplicate wells. Finally 100 μl of the T cell suspension (10^6/ml) was added. After 48-hour incubation at 37° C. in 5% CO2 20 μl BrdU (100 μM solution) (Cell Proliferation Elisa, Boehringer-Mannheim Belgium) was added to each well. After a further overnight incubation the T cell proliferation was measured using a calorimetric immunoassay for qualification of cell proliferation based on measurements of the incorporation of BrdU during DNA synthesis. The optical density (OD) was measured by a Behring EL311 place reader at 450 nm (reference wavelength: […]). The percent suppression of proliferation by drugs was counted using the formula: […]

[3] = test system: Highly purified T cells; assay: T cell proliferation induced by anti-CD28 mAb+PMA (BrdU); assay type: cell-based, human; conditions: read-out: IC50 aCD28
Source text: as §1
T cells were purified by removing non-T cells. Briefly, monocytes were removed by cold agglutination. The resulting lymphoid cells were further purified by a cell enrichment immunocolumn [Cellect Human T (Biotex, Edmonton, Alberta, Canada)] by a process of negative selection. More than 95% of the B cells were removed with this procedure. After depletion, the resulting T cell preparation was highly purified explaining these cells could not be activated by PHA or rIL-2 alone at concentrations capable of stimulating RBMC prior to deletion.
as §2, §3

[4] = test system: Con A induced proliferation of lymphocytes; assay: Whole Blood Assay (WBA): Con A induced lymphoproliferation in blood of rats given test substances in vivo; set-up: species or system R/A rats; conditions: orally 40 mg/kg/d 2x/d 2d, blood taken after 8 h, Con A 15 μg/ml
Experimental: [formula] […] Whole Blood Assay (WBA): WBA is a lymphoproliferation assay performed in vitro but using lymphocytes present in whole blood, taken from animals that were previously given test substances in vivo.
Rats: inbred, male 6- to 8-weeks old R/A rats weighing ±200 g were used as recipients.
Drug administration: xanthine derivatives were dissolved in DMSO and further diluted with PBS. Products were given orally in different concentrations 2 times a day for 2 days. To perform the experiments, 6–8 hours after the last administration 1 ml of blood is taken by heart puncture after ether anesthesia and anticoagulated with 100 U/ml of preservative free heparine. […]
Heparinized whole blood was diluted (1:25) with complete RPMI medium and stimulated with 15 μg/ml of concanavalin A (Con A) in triplicate wells in 96-well microtiter plates at 37° C. and 5% CO2. After 96-h culture, proliferation was determined by measuring the incorporation (cpm) of [^3H]-thymidine.
The Con A induced proliferation of lymphocytes taken from rats receiving the test substances (exp) was compared with that from rats receiving only the solvent (con). The percent suppression was calculated as follows: […]

[5] = Homo sapiens, PBMC, lowest concentration giving 50% suppression of the MLR
[6] = Homo sapiens, T-cell, anti-CD3 mAb+PMA pathway
[7] = Homo sapiens, T-cell, anti-CD28 mAb+PMA pathway
[8] = Homo sapiens, T-cell, immunosuppressants for comparison, anti-CD3 mAb+PMA
[9] = Homo sapiens, T-cell, immunosuppressants for comparison, anti-CD28 mAb+PMA

melting point: 177 °C
Compound: CC#Cn1c(=O)c2c(ncn2C#CC)n(C)c1=O [Compound 2, 1,7-dipropynyl-3-methylxanthine]

melting point: 172 °C
Compound: CC#Cn1c(=O)c2c(ncn2C)n(C#CC)c1=O [Compound 4, 1,3-dipropynyl-7-methylxanthine]
pIC50 [1, 5]: < 3.70
pIC50 [2, 6]: 4.05
pIC50 [3, 7]: < 3.70

melting point: 155 °C
Compound: CC#Cn1c(=O)c2c(ncn2C#CC)n(C#CC)c1=O [Compound 5, 1,3,7-tripropynylxanthine]
pIC50 [1, 5]: < 3.70
pIC50 [2, 6]: 4.30
pIC50 [3, 7]: < 3.70

More lines, now with the values behind:

Compound: 1,3-dipropyl-8-[4(diethylamino(propyl(amino-(sulfonyl))))fenyl]xanthine [Compound 11]
pIC50 ([1]; lowest concentration giving 50% suppression of the MLR): 4.60
pIC50 ([2]; anti-CD3 mAb+PMA pathway): 4.40
pIC50 ([3]; anti-CD28 mAb+PMA pathway): 4.26
% suppresion [4]: 33%

Compound: Cn1cnc2c1c(=O)n(CCCCC(=O)O)c(=O)n2C [Compound 22, 1-(4-Carboxybutyl)-3,7-dimethylxanthine]
pIC50 [1, 5]: < 3.70
pIC50 [2, 6]: < 3.70
pIC50 [3, 7]: < 3.70
melting point: 195 °C

Compound: Cn1c(=O)c2c(ncn2C)n(CC(C)(C)C)c1=O [Compound 68, 1,7-dimethyl-3-((tertbutyl)methyl)xanthine]
pIC50 [1, 5]: 4.12
pIC50 [2, 6]: 3.89
pIC50 [3, 7]: 3.92
melting point: 158 °C

Compound: Cc1oncc1C(=O)Nc1ccc(C(F)(F)F)cc1 [Leflunomide, reference compound]
pIC50 [1, 5]: 4.60
pIC50 [2, 6]: 4.82
pIC50 [3, 7]: 4.70

Compound: COc1c(C)c2c(c(O)c1C/C=C(\C)CCC(=O)O)C(=O)OC2 [Moferil, Mycophenolic acid, reference compound]
pIC50 [1, 5]: > 6.30
pIC50 [2, 8]: 7.30
pIC50 [3, 9]: 7.30

Compound: CO[C@H]1C[C@@H]2CC[C@@H](C)[C@@](O)(O2)C(=O)C(=O)N2CCCC[C@H]2C(=O)O[C@H]([C@H](C)C[C@@H]2CC[C@@H](O)[C@H](OC)C2)CC(=O)[C@H](C)/C=C(\C)[C@@H](O)[C@@H](OC)C(=O)[C@H](C)C[C@H](C)/C=C/C=C/C=C/1C [Rapamycin, reference compound]
pIC50 ([1]; Homo sapiens, PBMC, immunosuppressants for comparison): 9.00
pIC50 [2, 8]: 9.00
pIC50 [3, 9]: 9.00
